According to PubChem BioAssay (NCI):
Where “and” joins values, the source holds several entries; their conditions need not be identical. Equal values may be shown once.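 96-well plates; 48 h exposure; 5 concentrations. Endpoints by linear interpolation between flanking doses. Not reached: highest tested concentration assigned. GI50: concentration for 50% inhibition of growth. TGI: total growth inhibition.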

Columns and labels:
Assay in all cases: NCI-60 cell line screen, 48 h
[1] = test system: K-562 leukemia
[2] = test system: UACC-62 melanoma
[3] = test system: SF-295 CNS
[4] = test system: U251 CNS
[5] = test system: SN12C renal
[6] = test system: SNB-19 CNS
[7] = test system: MALME-3M melanoma
[8] = test system: MDA-MB-435
[9] = test system: NCI-H23 lung
[10] = test system: RXF 393 renal

Structure (SMILES) | TGI [1] | TGI [2] | TGI [3] | TGI [4] | TGI [5] | TGI [6] | TGI [7] | TGI [8] | TGI [9] | TGI [10] | GI50 [3] | GI50 [4] | GI50 [6] | GI50 [7] | GI50 [10]
CNC(=O)CCCNC(=O)CCCC(=O)N(C)C | > 100 µM | > 100 µM | > 100 µM | > 100 µM | > 100 µM | > 100 µM | > 100 µM | > 100 µM | > 100 µM |  |  |  |  |  | 
COC(=O)C1=Nc2c(C)nn(-c3ccccc3)c2N=C(c2ccccc2)C1 | > 10 µM | > 10 µM | > 10 µM | > 10 µM | > 10 µM | > 10 µM | > 10 µM | > 10 µM | > 10 µM |  |  |  |  |  | 
CC12CCCC3(CC(=O)C(C)(C)C3C(=O)C1)C2 (configuration not stated) | > 100 µM | > 100 µM | > 100 µM | > 100 µM | > 100 µM | > 100 µM | > 100 µM | > 100 µM | > 100 µM |  |  |  |  |  | 
O=C1CSC2=NC3=C(COC/C3=C\c3ccc(Br)cc3)C(c3ccc(Br)cc3)N12 (configuration not stated) | > 100 µM | > 100 µM | > 100 µM | > 100 µM | > 100 µM | > 100 µM |  | > 100 µM | > 100 µM | > 100 µM |  |  |  |  | 
COc1ccc(COCC[C@H](C)OC2OC(CO[Si](C)(C)C(C)(C)C)C(OC(=O)CCCN=[N+]=[N-])C(OC(=O)CCCN=[N+]=[N-])C2OC(=O)CCCN=[N+]=[N-])cc1 (some centres not stated) |  | > 100 µM | > 100 µM | > 100 µM | > 100 µM |  | > 100 µM | > 100 µM | > 100 µM | > 100 µM |  |  |  |  | 
CN(C)CCC(=O)/C=C\c1ccccc1 | 36.8 µM | 31.3 µM | 45.5 µM | 31.6 µM | 30.7 µM | > 100 µM | 32.8 µM |  |  | 29.2 µM |  |  |  |  | 
CC(=O)OCc1c(O)c2c(c(O)c1COC(C)=O)C(=O)C=CC2=O | > 100 µM | 19.3 µM | 27.4 µM | 28.5 µM | 24.2 µM |  | 20.5 µM |  | 29 µM |  |  |  |  |  | 
CCCSc1nc(-c2ccc(OC)cc2)c(C#N)c(=O)n1C1OC(COC(C)=O)C(OC(C)=O)C(OC(C)=O)C1OC(C)=O (configuration not stated) | > 100 µM | > 100 µM | > 100 µM and 92.6 µM | > 100 µM and 34.2 µM |  | > 100 µM | > 100 µM |  | > 100 µM | > 100 µM and 61.2 µM | > 100 µM and 24.3 µM | > 100 µM and 17.9 µM | > 100 µM and 45.4 µM | > 100 µM and 32.3 µM | > 100 µM and 17.2 µM
C1=C\SS/C=C\SS/1 | 85.2 µM | > 100 µM | > 100 µM | > 100 µM | > 100 µM | > 100 µM |  | > 100 µM | > 100 µM | 88.1 µM |  |  |  |  | 
c1c2c(cc(-n3nnc4c3CCCCCC4)c1-n1nnc3c1CCCCCC3)CCCCCC2 | 40.6 µM | 26.7 µM | 25.3 µM | 22.4 µM | 24.4 µM | 28.4 µM |  |  |  | 21.6 µM |  |  |  |  | 
CCC(C(=O)C(=O)OC)P1(=O)OC(C)(C)CN1C(C)(C)C (configuration not stated) | > 100 µM | 60.4 µM | > 100 µM | > 100 µM |  | > 100 µM | > 100 µM | > 100 µM | > 100 µM |  |  |  |  |  | 
CC(=O)OC(Cn1cncn1)(Cn1cncn1)c1ccc(Cl)cc1Cl | > 100 µM |  | > 100 µM | > 100 µM |  | > 100 µM |  | > 100 µM |  | > 100 µM |  |  |  |  | 
COC(=O)C1(Cc2ccc3c(c2)CCC3)Cc2ccccc2C1 | 51.3 µM | > 100 µM | > 100 µM | > 100 µM | > 100 µM | > 100 µM | > 100 µM | > 100 µM | > 100 µM |  |  |  |  |  | 
CCCCCCCCCc1nn2c(Cc3ccccc3)nnc2s1 | > 100 µM | 37.7 µM | 45.6 µM | 36.6 µM | 32.8 µM | 36.1 µM |  | 62 µM | 38.8 µM | 38.3 µM |  |  |  |  | 
CCOC(=O)C#Cc1ccccc1 | 8.91 µM | 32.5 µM | 30.2 µM | 25.9 µM | 80.1 µM | > 100 µM | 33.2 µM | 45.6 µM | 34.7 µM |  |  |  |  |  | 
NS(=O)(=O)c1cccc(NC(=S)NC(=O)Nc2ccc(Cl)c(Cl)c2)c1 | 37.2 µM | 26 µM | 44.7 µM | 39.6 µM | 32.6 µM | 58.2 µM | 29.4 µM |  | 34 µM | 58.9 µM |  |  |  |  | 
Cc1ccc(C2=CC(=O)/C(=C\C(=O)c3ccc(Cl)cc3)O2)cc1 | 41.7 µM | 23.8 µM |  | 32 µM |  | > 100 µM | 32.7 µM | 32.2 µM | 55.3 µM | 18.6 µM |  |  |  |  | 
CN(C)CCNC(=O)c1cccc2nc(-c3ccccc3)oc12 | > 100 µM | > 100 µM | > 100 µM | > 100 µM | > 100 µM | > 79.8 µM | 99 µM |  | > 100 µM | > 100 µM |  |  |  |  | 
COCCOCCOC1=CC(=O)c2c(O)ccc(O)c2C1=O | 3.77 µM | 3.34 µM | 3.23 µM |  | 3.8 µM | 3.28 µM | 0.399 µM | 0.108 µM | 3.23 µM | 3.68 µM |  |  |  |  | 
COC1CC(OC2CCC3(C)C(=CCC4C3C(OC(C)=O)C(OC(=O)CC(C)C)C3(C)C(C(C)=O)CCC43O)C2)OC(C)C1OC1CC(OC)C(OC2CC(OC)C(OC3OC(C)C(OC4OC(CO)C(O)C(O)C4O)C(OC)C3O)C(C)O2)C(C)O1 (configuration not stated) | > 75 µM | > 75 µM | > 75 µM | > 75 µM | > 75 µM | > 75 µM |  | > 75 µM | > 75 µM |  |  |  |  |  | 
CCOC(=O)c1nnsc1NN |  | > 100 µM | > 100 µM | > 100 µM | > 100 µM | > 100 µM |  | > 100 µM | > 100 µM | > 100 µM |  |  |  |  | 
O=c1[nH]c(=O)n(C2CC(O)C(CO)O2)cc1OCc1ccccc1 (configuration not stated) | > 100 µM | > 100 µM |  | > 100 µM | > 100 µM | > 100 µM | > 100 µM | > 100 µM | > 100 µM | > 100 µM |  |  |  |  | 
NC(=O)N/N=C1\CC2C3CC4C2C4C13 (configuration not stated) | > 100 µM | > 100 µM | > 100 µM | > 100 µM | > 100 µM | > 100 µM | > 100 µM | > 100 µM | > 100 µM |  |  |  |  |  | 
O=c1[nH]nc(Cc2ccccc2)n1/N=C/c1ccncc1 | > 100 µM |  | > 100 µM | > 100 µM | > 100 µM | > 100 µM | > 100 µM | > 100 µM | > 100 µM | > 100 µM |  |  |  |  | 
